Values joined by “and” are separate entries in the source; they are usually repeats but may differ in a detail not shown here. Equal values may be shown once.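 Results reflect a 48-hour exposure of cells in 96-well plates to compound at five concentrations. Here, GI50 denotes the concentration required for 50% inhibition of growth. The concentration for full growth arrest is given as TGI.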
Legend:
Assay in all cases: DTP human tumour cell line panel, 48 h
A498 renal = tested on: A498 renal
HCC-2998 colon = tested on: HCC-2998 colon
LOX IMVI melanoma = tested on: LOX IMVI melanoma
NCI-H460 lung = tested on: NCI-H460 lung
RXF 393 renal = tested on: RXF 393 renal
SK-MEL-28 melanoma = tested on: SK-MEL-28 melanoma
SK-MEL-5 melanoma = tested on: SK-MEL-5 melanoma
SN12C renal = tested on: SN12C renal
UACC-257 melanoma = tested on: UACC-257 melanoma
UO-31 renal = tested on: UO-31 renal

Row | SMILES | GI50 (A498 renal) | TGI (A498 renal) | GI50 (HCC-2998 colon) | TGI (HCC-2998 colon) | GI50 (LOX IMVI melanoma) | TGI (LOX IMVI melanoma) | GI50 (NCI-H460 lung) | TGI (NCI-H460 lung) | GI50 (RXF 393 renal) | TGI (RXF 393 renal) | GI50 (SK-MEL-28 melanoma) | TGI (SK-MEL-28 melanoma) | GI50 (SK-MEL-5 melanoma) | TGI (SK-MEL-5 melanoma) | GI50 (SN12C renal) | TGI (SN12C renal) | GI50 (UACC-257 melanoma) [µM] | TGI (UACC-257 melanoma) | GI50 (UO-31 renal) | TGI (UO-31 renal)
1 | COc1ccccc1-c1cc2c3c(nc4ccccc42)C(=O)c2cccnc2-c3n1 | 18.9 µM | 47.4 µM | 14.8 µM | 30.6 µM | 2.13 µM | 4.89 µM | 11.5 µM | 26 µM | 16.7 µM | 46.8 µM | 18.4 µM | 34.7 µM | 12.5 µM | 25.4 µM | 14.5 µM | 30.1 µM | 7.22 | 22.8 µM | 11.1 µM | 23.3 µM
2 | COc1ccc2c(c1)Oc1nc(N)c(C#N)c(N)c1C2Sc1ccc(SC)cc1 (centres undefined) | 1.77 µM | 3.3 µM | 1.78 µM | 3.36 µM | 1.68 µM | 3.21 µM | 2.04 µM | 4.05 µM | 1.72 µM | 3.11 µM | 1.71 µM | 3.15 µM | 1.79 µM | 3.18 µM | 1.64 µM | 3.06 µM | 1.9 | 3.38 µM | 1.51 µM | 2.84 µM
3 | CC1OCC2OC(C)OC(C3C4=C(CC(C)(C)CC4=O)OC4=C3C(=O)CC(C)(C)C4)C2O1 (centres undefined) |  | > 100 µM |  | > 100 µM |  | > 100 µM |  | > 100 µM |  | > 100 µM |  | > 100 µM |  | > 100 µM |  | > 100 µM |  | > 100 µM |  | > 100 µM
4 | O=C1C=C(SCCO)C(=O)c2ccccc21 | 13.9 µM | 27 µM | 2.78 µM | 6.8 µM | 1.53 µM | 3.26 µM | 1.84 µM | 3.59 µM | 1.64 µM | 3.01 µM | 2.01 µM | 4.02 µM | 1.61 µM | 2.97 µM | 1.58 µM | 3.04 µM | 1.96 | 3.41 µM | 1.24 µM | 2.49 µM
5 | O=c1/c(=C/c2cccc3ccccc23)sc2nc3ccccc3n12 |  | > 100 µM |  | > 100 µM |  | > 100 µM |  | > 100 µM |  | > 100 µM |  | > 100 µM |  | > 100 µM |  | > 100 µM |  | > 100 µM |  | > 100 µM
6 | Cn1cc(-c2cc3c(Nc4ccc(CC(=O)Nc5cc(C(C)(C)C)on5)cc4)ncnc3[nH]2)cn1 | 0.692 µM and 1.07 µM | 1.81 µM and 3.03 µM | 1.34 µM and 0.652 µM | 7.5 µM and 4.82 µM | 0.87 µM and 0.548 µM | 6.31 µM and 3.63 µM | 1.04 µM and 1.26 µM | 3.65 µM and 6.22 µM | 0.723 µM and 0.461 µM | 1.88 µM and 1.48 µM | 0.804 µM and 0.508 µM | 3.58 µM and 3 µM | 1.4 µM and 1.31 µM | 4.77 µM and 4.43 µM | 0.671 µM and 0.471 µM | 4.05 µM and 4.15 µM | 2.04 | 6.96 µM and 6.99 µM | 2.43 µM and 2.33 µM | 7.04 µM and 6.58 µM
7 | COc1ccc(-c2nc(-c3nc4ccc(F)cc4[nH]3)cc3c2[nH]c2ccccc23)cc1 | 1.92 µM | 9.7 µM | 3.71 µM | 26.2 µM | 2.22 µM | 5.31 µM | 1.98 µM | 5.81 µM | 1.72 µM | 4.55 µM | 3.4 µM | > 100 µM | 1.8 µM | 4.61 µM | 2.97 µM | > 100 µM | 2.01 | 4.8 µM | 2.54 µM | 8.74 µM
8 | CCC(=O)Sc1ccccc1C(=O)Nc1ccc(Cl)cc1 | 9.19 µM | 38.5 µM | 18.5 µM | 47 µM | 5.91 µM | 24.4 µM | 4.84 µM | 36 µM | 28.7 µM | > 100 µM | 9.33 µM | 57.7 µM | 4.22 µM | 17.4 µM | 4.26 µM | 41.8 µM | 31.7 | > 100 µM | 6.53 µM | > 100 µM
9 | COc1ccc(C(CC(=O)c2ccccc2)C(C(=O)c2ccccc2)C(c2ccc(OC)cc2)C2C(=O)NC(=O)NC2=O)cc1 (centres undefined) | 11 µM | 43.5 µM | 6.83 µM | 28.5 µM | 9.38 µM | > 100 µM | 7.14 µM | > 100 µM | 22.6 µM | > 100 µM | 23.7 µM | > 100 µM | 12.5 µM | 31.8 µM | 24.2 µM | > 100 µM | 14.1 | 69.3 µM | 13.5 µM | 47.7 µM
10 | CC(C)(C)c1nc2c(o1)C(=Nc1ccccc1)c1ccccc1C2=O |  | 36.4 µM |  | 42.6 µM |  | 4.14 µM |  | 19.9 µM |  | 14.7 µM |  | 10.8 µM |  | 2.97 µM |  | 14.4 µM |  | 4.45 µM |  | 24.3 µM
11 | COc1ccc(/C=C2/CN(C(=O)c3ccccc3F)C/C(=C\c3ccc(OC)cc3)C2=O)cc1 | 13.5 µM | 27.1 µM | 1.91 µM | 3.48 µM | 1.66 µM | 3.24 µM | 8.81 µM | 30.8 µM | 1.85 µM | 3.68 µM | 2.72 µM | 7.93 µM | 1.88 µM | 4.14 µM | 2.78 µM | 10.9 µM | 3.24 | 13.3 µM | 1.9 µM | 6.69 µM
12 | COc1ccc(OC)c(/C=C/[N+](=O)[O-])c1 | 3.26 µM | 8.42 µM and 8.29 µM | 4.24 µM and 4.38 µM | 10.4 µM and 7.54 µM | 1.09 µM | 12.6 µM and 3.78 µM | 2.91 µM | 9.32 µM and 13.9 µM | 1.8 µM | 3.59 µM and 3.54 µM |  | 4.96 µM and 9.45 µM | 2.06 µM | 4.29 µM and 6.58 µM |  | 7.19 µM and 7.69 µM | 3.19 | 11.7 µM and 8.28 µM |  | 3.39 µM and 5.62 µM
13 | COC1/C=C/O[C@@]2(C)Oc3c(C)c(O)c4c(O)c(cc(O)c4c3C2=O)NC(=O)/C(C)=C\C=C\[C@H](C)C(O)[C@@H](C)[C@@H](O)[C@@H](C)[C@H](OC(C)=O)[C@@H]1C (some centres undefined) |  | 96.9 µM | 15.8 µM | 29.2 µM and 49.2 µM |  | 26.1 µM and 29.5 µM | 18.8 µM and 32.7 µM | 37 µM and 79.8 µM | 14 µM | 29.9 µM and 25.7 µM |  | 52 µM and 57.3 µM | 25.6 µM | 67.6 µM and 88.1 µM | 11.9 µM | 24.6 µM and 33.9 µM | 17.5 | 32.7 µM and 32.9 µM | 12 µM | 24.4 µM and 96.9 µM

From PubChem BioAssay (NCI)
